Molecules are shown by their SMILES.

Complement factor D, sequence (P00746 whole entry): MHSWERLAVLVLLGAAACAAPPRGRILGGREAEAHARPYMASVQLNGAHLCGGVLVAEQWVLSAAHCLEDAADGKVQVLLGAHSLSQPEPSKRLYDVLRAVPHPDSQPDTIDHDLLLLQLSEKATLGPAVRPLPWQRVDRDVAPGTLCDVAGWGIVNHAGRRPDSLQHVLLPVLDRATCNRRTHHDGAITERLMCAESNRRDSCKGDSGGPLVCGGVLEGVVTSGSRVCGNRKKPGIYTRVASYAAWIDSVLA

The assay has as its target Complement factor D (Homo sapiens, UniProt P00746). As to the kind of experiment: Human Factor D Assay. As for the experimental part:
Human Factor D (purified from human serum, Complement Technology, Inc.) at 80 nM final concentration is incubated with test compound at various concentrations for 5 min at room temperature in 50 mM Tris, 1M NaCl, pH 7.5. A synthetic substrate Z-L-Lys-SBzl and DTNB (Ellman's reagent) are added to final concentrations of 100 μM each. Absorbance at 405 nm (A405) is recorded at 30 second intervals for 30 min using a microplate spectrophotometer. IC50 values are calculated by nonlinear regression of complement Factor D reaction rates as a function of test compound concentration.
Turning to `CC(=O)c1cn(CC(=O)N2C[C@H]3C[C@H]3[C@H]2C(=O)Nc2nc(C(F)(F)F)ccc2C)c2c(C)cc(-c3cnc4cc(C)nn4c3)cc12` [US20250197403, Compound 1], the concentration for half-maximal inhibition (IC50) – broadly, the point on the concentration scale where inhibition reaches its midpoint – is under 1000 nM. The figure for `CC(=O)c1cn(CC(=O)N2[C@H](C(=O)Nc3nc(Br)ccc3C3CC3)C[C@@]3(C)C[C@@H]23)c2c(C)cc(-c3cnc(C)nc3)cc12` [US20250197403, Compound 9] is under 1000 nM. The compound `CC(=O)c1cn(CC(=O)N2[C@H](C(=O)Nc3cncc(C(F)(F)F)n3)C[C@@]3(C)C[C@@H]23)c2c(C)cc(-c3cnc4cc(C)nn4c3)cc12` [US20250197403, Compound 48] had an IC50 of under 1000 nM. `COCc1ccc(Br)nc1NC(=O)[C@@H]1C[C@@]2(C)C[C@H]2N1C(=O)Cn1cc(C(C)=O)c2cc(-c3ccc4nc(C)nn4c3)cc(C)c21` [US20250197403, Compound 62] came in with an IC50 of under 1000 nM. The figure for `CC(=O)c1cn(CC(=O)N2[C@H](C(=O)Nc3nc(C(F)(F)F)ccc3C)C[C@@]3(C)C[C@@H]23)c2c(C)cc(-c3cnc4sc(C)nc4c3)cc12` [US20250197403, Compound 70] is under 1000 nM; for `CC(=O)c1cn(CC(=O)N2C[C@@](F)(CF)C[C@H]2C(=O)Nc2nc(C(F)(F)F)ccc2Cl)c2c(C)nc(-c3cnc4cc(C)nn4c3)cc12` [US20250197403, Compound 92] it is under 1000 nM.

The record behind these values is BindingDB's records for patent US20250197403 (Achillion Pharmaceuticals, 2025).
